Article PMC9532399, “The lysosomal transporter TAPL has a dual role as peptide translocator and phosphatidylserine floppase” (Nature Communications, 2022)

What was measured:
Type in all cases: biochemical, mouse
TAPL E664Q mutant = test: Dithionite-based flip-flop assay, E664Q proteoliposomes; details: for NBD*-PS fluorescence intensity (net percentage transported): E664Q
Procedure: All lipids used in reconstitution were purchased from Avanti Polar Lipids, Inc. (purity > 99%). The in vitro flip–flop assay was performed using NBD* dye-labeled proteoliposomes as described previously. Briefly, E. coli polar lipids and egg PC were mixed in a 1:1 molar ratio, and 0.5% (mol/mol) NBD*-lipid was added. The lipid mixture was then dried under nitrogen gas. The NBD*-lipids used were 18:1-06:0 NBD*-PS (1-oleoyl-2-{6-[(7-nitro-2-1,3-benzoxadiazol-4-yl)amino]hexanoyl}-sn-glycero-3-phosphoserine), 18:1-06:0 NBD*-PC (1-oleoyl-2-{6-[(7-nitro-2-1,3-benzoxadiazol-4-yl)amino]hexanoyl}-sn-glycero-3-phosphocholine), 18:1-06:0 NBD*-PG (1-oleoyl-2-{6-[(7-nitro-2-1,3-benzoxadiazol-4-yl)amino]hexanoyl}-sn-glycero-3-[phospho-rac-(1-glycerol)]), 18:1-06:0 NBD*-PE (1-oleoyl-2-{6-[(7-nitro-2-1,3-benzoxadiazol-4-yl)amino]hexanoyl}-sn-glycero-3-phosphoethanolamine), and 25-NBD*-Cholesterol (25-[N-[(7-nitro-2-1,3-benzoxadiazol-4-yl)methyl]amino]−27-norcholesterol). Thin lipid films were solubilized in 20 mM HEPES–NaOH pH 8.0, 200 mM NaCl and 5% (v/v) glycerol, incubated at RT for 30 min and subjected to 5 freeze–thaw cycles. After extrusion with a Mini-Extruder at 65 °C, final lipid concentrations were determined by phosphorus assays. Briefly, 10 μL of extruded lipid was added to 10 μL of 2% (w/v) ammonium molybdate and 300 μL of concentrated perchloric acid. The mixture was heated at 250 °C for 30 min, then cooled to RT and mixed with 1.5 mL of 0.4% (w/v) ammonium molybdate and 250 μL of 9% (w/v) L-ascorbic acid. It was again heated at 100 °C for 6 min and cooled to RT. Lipid concentrations were calculated from the absorbance at 820 nm using a standard curve prepared with NaH2PO4 solution. After accurately determining the lipid concentration, DM-purified protein and 5 mM lipid suspension (solubilized in 5 mM DM) were mixed 1:25 (w/w). […]
To measure the flip–flop activity, 10 μL of 2 mM NBD*-labeled proteoliposomes were added to 100 μL of reaction buffer (20 mM HEPES–NaOH pH 8.0, 200 mM NaCl, 5 mM ATP and 5% (v/v) glycerol) in the presence of 2 mM MgCl2 (or NaCl), and incubated at 37 °C for 1 h. The mixture was transferred to a 96-well plate and time-dependent fluorescence (λex/λem = 460/538 nm) was recorded every 30 s for 26 min using a fluorescence spectrophotometer (Gemini XPS). After the baseline fluorescence had stabilized, 10 mM sodium dithionite was added to quench the fluorescence of NBD*-lipid present in the outer leaflets of the liposomes. The initial rapid drop and subsequent slow decline in fluorescence intensity were monitored. […] The net percentage of NBD*-lipid translocated across the lipid bilayer was calculated from the following equation[72]: the percentage of protected NBD*-lipid in the inner leaflet = [(FD−F0)/(FT−F0)]×100, and that of accessible NBD*-lipid in the outer leaflet = [(FT−FD)/(FT−F0)]×100, where FT is the total fluorescence of the sample before the addition of dithionite, FD is the fluorescence of the sample after quenching with dithionite, and F0 is any residual fluorescence of the sample after solubilization with Triton X-100. Fluorescence values (FT, FD, F0) were calculated as the averages of 5 points on the respective plateau lines. The ΔTMD0-mediated lipid floppase activity was determined by subtracting the percentage of NBD*-lipid fluorescence measured in the presence of Na^+/ATP from that measured in the presence of Mg^2+/ATP.

TAPL N301A mutant = test: Peptide transport assay, N301A; details: 9-mer 10 mM (sic), 3 mM ATP
Procedure: (§1) Proteoliposomes for peptide transport assays were prepared according to the protocol of Zhao et al., with some modifications. Briefly, E. coli polar lipid extract dissolved in chloroform was dried under a gentle stream of nitrogen. The thin film of lipids was placed under a desiccator overnight to completely remove residual chloroform and then hydrated in 1X PBS buffer pH 7.4 (137 mM NaCl, 2.7 mM KCl, 8 mM Na2HPO4, and 2 mM KH2PO4) with 10 mM MgCl2 and 5% (v/v) glycerol. After water bath sonication at 22 °C for 5 min (Powersonic 610, KLEENTEK), the lipid solution was extruded using a Mini-Extruder equipped with a polycarbonate membrane filter (200 nm pore) (Avanti Polar Lipids, Inc.) to obtain unilamellar vesicles, which were destabilized with 0.36% (w/v) DM. The DM-purified protein and lipid suspension were mixed in a 1:50 (w/w) ratio. After incubation at 4 °C for 2 h, the mixture was treated with Bio-Beads SM-2 resin (60 and 120 mg, see above) at 4 °C for a total of 18 h to remove detergent. The proteoliposomes were collected by centrifugation at 200,000×g for 1.5 h at 4 °C and resuspended in the buffer described above.
(§2) The peptide transport activity of ΔTMD0 was measured as described previously. Briefly, 50 μL of ΔTMD0-loaded proteoliposomes (~0.6 μg protein) were added into 200 μL reaction buffer containing 1X PBS pH 7.4, 3 mM ATP, and 10 mM MgCl2 in the presence or absence of 10 μM 5-IAF-labeled peptides. To investigate transport activity, the mixture was incubated at 37 °C for 10 min. The reaction was terminated by incubating the mixture for 20 min on ice. Proteoliposomes were collected by centrifugation at 200,000×g for 30 min and then washed twice with 1X PBS. The proteoliposomes were completely disrupted by adding 10% (w/v) SDS solution (final concentration, 2%). The transported peptide was measured using a microplate reader (Gemini XPS) with excitation at 485 nm and emission at 520 nm.

TAPL E456A mutant = test: Peptide transport assay, E456A; details: 9-mer 10 mM (sic), 3 mM ATP
Procedure: as §1, §2

Compound	NBD*-PS fluorescence intensity (net percentage transported) (TAPL E664Q mutant; Mg2+/ATP minus Na+/ATP, no peptide, no POPS, mean n=3)	NBD*-PS fluorescence intensity (net percentage transported) (TAPL E664Q mutant; replicate I)	NBD*-PS fluorescence intensity (net percentage transported) (TAPL E664Q mutant; replicate II)	NBD*-PS fluorescence intensity (net percentage transported) (TAPL E664Q mutant; replicate III)	movement of NBD*-PS to the inner leaflet (TAPL E664Q mutant; catalytically inactive E664Q mutant)	Transport activity (TAPL N301A mutant; replicate I)	Transport activity (TAPL N301A mutant; replicate II)	Transport activity (TAPL N301A mutant; replicate III)	Transport activity (TAPL N301A mutant; wild-type = 100%, mean n=3)	Transport activity (TAPL E456A mutant; replicate I)	Transport activity (TAPL E456A mutant; replicate II)	Transport activity (TAPL E456A mutant; replicate III)	Transport activity (TAPL E456A mutant; wild-type = 100%, mean n=3)
CCCCCCCC/C=C\CCCCCCCC(=O)OC[C@H](COP(=O)(O)OC[C@H](N)C(=O)O)OC(=O)CCCCCNc1ccc([N+](=O)[O-])c2nonc12 [NBD*-PS, 1-oleoyl-2-{6-[(7-nitro-2-1,3-benzoxadiazol-4-yl)amino]hexanoyl}-sn-glycero-3-phosphoserine]	1.892%	1.638%	1.974%	2.062%	~ 1.9%	–	–	–	–	–	–	–	–
RRYQNSTC^5-IAFL [9-mer, 5-IAF-labeled peptide of 9 residues (RRYQNSTC^5-IAFL)]	–	–	–	–	–	112.671%	153.066%	131.453%	132.396%	48.9147%	53.6761%	40.3825%	47.6578%
